The nature of this data set: Solubility of benzoyl peroxide in organic solvents by HPLC analysis. As to conditions: room temperature. It is filed as physicochemical. The text has this: An example of a preferred organic solvent for the formulation of the invention is a polyol, also known as a polyhydric alcohol. Representative examples of polyols include glycols and sugar alcohols. Preferred polyols for the formulation of the invention include polyether glycols, such as ethoxydiglycol, and propylene glycol. A preferred water-miscible organic solvent is propylene glycol. The inventors have determined by HPLC analysis that benzoyl peroxide is soluble in 100% propylene glycol at room temperature at a level between 0.2% and 0.3% w/w. A second preferred organic solvent is ethoxydiglycol, such as sold under the tradename Transcutol® (Gattefosse, Saint-Priest, France). It has been determined by HPLC analysis that benzoyl peroxide is soluble in ethoxydiglycol at room temperature at a level of about 4.9%. Another preferred organic solvent is polyethylene glycol, such as PEG 400.

For `O=C(OOC(=O)c1ccccc1)c1ccccc1` [benzoyl peroxide], the “Solubility of benzoyl peroxide in ethoxydiglycol” value was “about 4.9%”.

The values above are taken from patent publication US11478498B2, “Topical pharmaceutical formulations containing a low concentration of benzoyl peroxide in suspension in water and a water-miscible organic solvent” (Dow Pharmaceutical Sciences, Inc., priority 2008, dated 2022).
